IC50 and viability data for 21 molecules are collected here from patent US10844052B2, “LLS compounds for treatment of cancer” (THE REGENTS OF THE UNIVERSITY OF CALIFORNIA, priority 2016, dated 2020).

Where only a bound is given, the exact number is not on record here.

Assay [1] has as its system SKOV3. Put plainly: Anti-cancer activity against ovarian cancer cells SKOV3 (cell killing in solution / in vitro cell proliferation). Type of assay: cell-based. The note with it: Homo sapiens, SK-OV-3, ovarian cancer cells SKOV3. Here is the method: Biotinylated LLS2 was synthesized in solution and loaded it onto a streptavidin-coated plate. The biotinylated LLS2 immobilized on the plate killed approximately 21% of SKOV3 ovarian cancer cells at 100 μM loading, 16% at 50 μM and 14% at 25 μM (FIG. 4). The killing effect of the LLS2 compound was also tested in solution. […] In addition, LLS2 can kill pancreatic cancer cell line XPA3, prostate cancer cell line PC3, colon cancer cell line HT29, breast cancer cell line MCF7 and lung cancer cell line A549 (FIG. 4).

Assay [2] has as its system 22RV1 prostate cancer cells. Briefly: Cell viability of prostate cancer 22RV1 cells after 72 hours treatment. The note with it: Homo sapiens. In kind it is cell-based.

The term IC50 denotes the concentration at which inhibition is half-maximal. Higher therefore signals weaker potency in that assay. Regarding `CC(=O)OCCN(CCOC(C)=O)c1ccc(-c2nc3cc(C(N)CC(N)=O)ccc3n2Cc2ccc(C(F)(F)F)c(F)c2)cc1` (stereo not shown) [LLS22, ((4-(5-(1,3-diamino-3-oxopropyl)-1-(3-fluoro-4-(trifluoromethyl)benzyl)-1H-benzo[d]imidazol-2-yl)phenyl)azanediyl)bis(ethane-2,1-diyl) Diacetate], the IC50 in assay [1] was > 50 µM.

For the molecule `NC(=O)CC(NCc1ccc(Cl)c(Cl)c1)c1ccc2c(c1)nc(-c1ccc(N(CCO)CCO)cc1)n2CC12CC3CC(CC(C3)C1)C2` (stereo not shown) [LLS28, 3-(1-(((1s,3s)-adamantan-1-yl)methyl)-2-(4-(bis(2-hydroxyethyl)amino)phenyl)-1H-benzo[d]imidazol-5-yl)-3-((3,4-dichlorobenzyl)amino)propanamide], the midpoint of inhibition in assay [1], the IC50, lay at 16.1 µM. This counts as double-digit micromolar.

`CC(=O)OCCN(CCOC(C)=O)c1ccc(-c2nc3cc(C(CC(N)=O)NC(=O)[C@@H](N)Cc4ccc(F)c(F)c4)ccc3n2Cc2ccc(F)c(F)c2)cc1` (stereo partly drawn) [LLS11, ((4-(5-(3-amino-1-((S)-2-amino-3-(3,4-difluorophenyl)propanamido)-3-oxopropyl)-1-(3,4-difluorobenzyl)-1H-benzo[d]imidazol-2-yl)phenyl)azanediyl)bis(ethane-2,1-diyl) Diacetate]: the IC50 in assay [1] is > 50 µM.

Regarding `NC(=O)CC(NC(=O)[C@@H](N)Cc1ccc(Cl)c(Cl)c1)c1ccc2c(c1)nc(-c1ccc(N(CCO)CCO)cc1)n2Cc1cc(F)ccc1F` (stereo partly drawn) [LLS13, (2S)-2-amino-N-(3-amino-1-(2-(4-(bis(2-hydroxyethyl)amino)phenyl)-1-(2,5-difluorobenzyl)-1H-benzo[d]imidazol-5-yl)-3-oxopropyl)-3-(3,4-dichlorophenyl)propanamide], the IC50 in assay [1] was > 50 µM.

As a reminder, the viability is a read-out of living cells in per cent, often relative to untreated cells. On to `CN(C)CCCOc1ccc(-c2nc3cc(C(CC(N)=O)NCC4CCCCC4)ccc3n2Cc2ccc(OC(F)(F)F)cc2)cc1` (stereo not shown) [LLS89, 3-((cyclohexylmethyl)amino)-3-(2-(4-(3-(dimethylamino)propoxy)phenyl)-1-(4-(trifluoromethoxy)benzyl)-1H-benzo[d]imidazol-5-yl)propanamide], for which, in assay [2], the viability at 2.5 µM amounted to 1%, the viability at 5 µM is 0% and the viability at 10 µM turned out to be 0%.

Consider `CN(C)CCCOc1ccc(-c2nc3cc(C(CC(N)=O)NCC4CCCCC4)ccc3n2Cc2ccc(Br)cc2)cc1` (stereo not shown) [LLS95, 3-(1-(4-bromobenzyl)-2-(4-(3-(dimethylamino)propoxy)phenyl)-1H-benzo[d]imidazol-5-yl)-3-((cyclohexylmethyl)amino)propanamide], for which, in assay [2], the viability at 2.5 µM turned out to be 22%, the viability at 5 µM came out at 1% and the viability at 10 µM was 0%.

Turning to `NC(=O)CC(NCC1CCCCC1)c1ccc2c(c1)nc(-c1ccc(N3CCOCC3)cc1)n2Cc1ccc2c(c1)OCO2` (stereo not shown) [LLS107, 3-(1-(benzo[d][1,3]dioxol-5-ylmethyl)-2-(4-morpholinophenyl)-1H-benzo[d]imidazol-5-yl)-3-((cyclohexylmethyl)amino)propanamide], in assay [2], the viability at 2.5 µM came out at 67%, the viability at 5 µM came to 4% and the viability at 10 µM came out at 0%.

For the molecule `NC(=O)CC(NCC1CCCCC1)c1ccc2c(c1)nc(-c1cccc(OCCN3CCOCC3)c1)n2Cc1ccc(OC(F)(F)F)cc1` (stereo not shown) [LLS91, 3-((cyclohexylmethyl)amino)-3-(2-(3-(2-morpholinoethoxy)phenyl)-1-(4-(trifluoromethoxy)benzyl)-1H-benzo[d]imidazol-5-yl)propanamide], in assay [2], the viability at 2.5 µM amounted to 33%, the viability at 5 µM was 7% and the viability at 10 µM came out at 0%.

Turning to `NC(=O)CC(NCc1ccc(Cl)c(Cl)c1)c1ccc2c(c1)nc(-c1ccc(N(CCO)CCO)cc1)n2CC1CCCCC1` (stereo not shown) [LLS104, 3-(2-(4-(bis(2-hydroxyethyl)amino)phenyl)-1-(cyclohexylmethyl)-1H-benzo[d]imidazol-5-yl)-3-((3,4-dichlorobenzyl)amino)propanamide], in assay [2], the viability at 2.5 µM was 82%, the viability at 5 µM was determined as 31% and the viability at 10 µM came to 1%.

Regarding `NC(=O)CC(NCC1CCCCC1)c1ccc2c(c1)nc(-c1ccc(N3CCOCC3)cc1)n2Cc1ccc(Br)cc1` (stereo not shown) [LLS94, 3-(1-(4-bromobenzyl)-2-(4-morpholinophenyl)-1H-benzo[d]imidazol-5-yl)-3-((cyclohexylmethyl)amino)propanamide], in assay [2], the viability at 2.5 µM amounted to 3%, the viability at 5 µM is 0% and the viability at 10 µM was found to be 0%.

Take `NC(=O)CC(NCc1ccc(Cl)c(Cl)c1)c1ccc2c(c1)nc(-c1ccc(N(CCO)CCO)cc1)n2Cc1ccc(Cl)c(C(F)(F)F)c1` (stereo not shown) [LLS97, 3-(2-(4-(bis(2-hydroxyethyl)amino)phenyl)-1-(4-chloro-3-(trifluoromethyl)benzyl)-1H-benzo[d]imidazol-5-yl)-3-((3,4-dichlorobenzyl)amino)propanamide]: in assay [2], the viability at 2.5 µM was 23%, the viability at 5 µM was 0% and the viability at 10 µM amounted to 0%.

As to `NC(=O)CC(NCC1CCCCC1)c1ccc2c(c1)nc(-c1ccc(N(CCO)CCO)cc1)n2Cc1ccc(Cl)c(Cl)c1` (stereo not shown) [LLS101, 3-(2-(4-(bis(2-hydroxyethyl)amino)phenyl)-1-(3,4-dichlorobenzyl)-1H-benzo[d]imidazol-5-yl)-3-((cyclohexylmethyl)amino)propanamide], in assay [2], the viability at 2.5 µM is 20%, the viability at 5 µM came out at 1% and the viability at 10 µM was found to be 0%.

Turning to `NC(=O)CC(NCc1ccc(Cl)c(Cl)c1)c1ccc2c(c1)nc(-c1ccc(N(CCO)CCO)cc1)n2Cc1ccc(C(F)(F)F)cc1` (stereo not shown) [LLS92, 3-(2-(4-(bis(2-hydroxyethyl)amino)phenyl)-1-(4-(trifluoromethyl)benzyl)-1H-benzo[d]imidazol-5-yl)-3-((3,4-dichlorobenzyl)amino)propanamide], in assay [2], the viability at 2.5 µM was found to be 74%, the viability at 5 µM worked out at 15% and the viability at 10 µM turned out to be 1%.

For `CN1CCN(c2ccc(-c3nc4cc(C(CC(N)=O)NCC5CCCCC5)ccc4n3Cc3ccc(OC(F)(F)F)cc3)cc2)CC1` (stereo not shown) [LLS90, 3-((cyclohexylmethyl)amino)-3-(2-(4-(4-methylpiperazin-1-yl)phenyl)-1-(4-(trifluoromethoxy)benzyl)-1H-benzo[d]imidazol-5-yl)propanamide], in assay [2], the viability at 2.5 µM stood at 1%, the viability at 5 µM is 0% and the viability at 10 µM worked out at 0%.

Take `NC(=O)CC(NCC1CCCCC1)c1ccc2c(c1)nc(-c1ccc(N3CCOCC3)cc1)n2Cc1ccc(C(F)(F)F)c(F)c1` (stereo not shown) [LLS96, 3-((cyclohexylmethyl)amino)-3-(1-(3-fluoro-4-(trifluoromethyl)benzyl)-2-(4-morpholinophenyl)-1H-benzo[d]imidazol-5-yl)propanamide]: in assay [2], the viability at 2.5 µM is 45%, the viability at 5 µM was 0% and the viability at 10 µM was 0%.

Consider `CN(C)CCCOc1ccc(-c2nc3cc(C(CC(N)=O)NCc4ccc(Cl)c(Cl)c4)ccc3n2Cc2ccc(Cl)c(Cl)c2)cc1` (stereo not shown) [LLS85, 3-(1-(3,4-dichlorobenzyl)-2-(4-(3-(dimethylamino)propoxy)phenyl)-1H-benzo[d]imidazol-5-yl)-3-((3,4-dichlorobenzyl)amino)propanamide], for which, in assay [2], the viability at 2.5 µM was 65%, the viability at 5 µM was 1% and the viability at 10 µM worked out at 0%.

In the case of `NC(=O)CC(NCc1ccc(Cl)c(Cl)c1)c1ccc2c(c1)nc(-c1ccc(N(CCO)CCO)cc1)n2CCc1ccccn1` (stereo not shown) [LLS108, 3-(2-(4-(bis(2-hydroxyethyl)amino)phenyl)-1-(2-(pyridin-2-yl)ethyl)-1H-benzo[d]imidazol-5-yl)-3-((3,4-dichlorobenzyl)amino)propanamide], in assay [2], the viability at 2.5 µM amounted to 89%, the viability at 5 µM is 100% and the viability at 10 µM stood at 101%.

For `NC(=O)CC(NCc1ccncc1)c1ccc2c(c1)nc(-c1ccc(N(CCO)CCO)cc1)n2Cc1ccc(Cl)c(Cl)c1` (stereo not shown) [LLS84, 3-(2-(4-(bis(2-hydroxyethyl)amino)phenyl)-1-(3,4-dichlorobenzyl)-1H-benzo[d]imidazol-5-yl)-3-((pyridin-4-ylmethyl)amino)propanamide], in assay [2], the viability at 2.5 µM is 119%, the viability at 5 µM is 109% and the viability at 10 µM was 138%.

With `CN1CCN(c2ccc(-c3nc4cc(C(CC(N)=O)NCC5CCCCC5)ccc4n3Cc3ccc(Cl)c(C(F)(F)F)c3)cc2)CC1` (stereo not shown) [LLS99, 3-(1-(4-chloro-3-(trifluoromethyl)benzyl)-2-(4-(4-methylpiperazin-1-yl)phenyl)-1H-benzo[d]imidazol-5-yl)-3-((cyclohexylmethyl)amino)propanamide], in assay [2], the viability at 2.5 µM was 1%, the viability at 5 µM is 0% and the viability at 10 µM came out at 0%.

Take `NC(=O)CC(NCc1ccc(Cl)c(Cl)c1)c1ccc2c(c1)nc(-c1cccc(OCCN3CCOCC3)c1)n2Cc1ccc(Cl)c(Cl)c1` (stereo not shown) [LLS87, 3-(1-(3,4-dichlorobenzyl)-2-(3-(2-morpholinoethoxy)phenyl)-1H-benzo[d]imidazol-5-yl)-3-((3,4-dichlorobenzyl)amino)propanamide]: in assay [2], the viability at 2.5 µM worked out at 76%, the viability at 5 µM is 56% and the viability at 10 µM was 0%.

Take `NC(=O)CC(NCc1ccc(Cl)c(Cl)c1)c1ccc2c(c1)nc(-c1ccc(N(CCO)CCO)cc1)n2Cc1ccc(Br)cc1` (stereo not shown) [LLS93, 3-(2-(4-(bis(2-hydroxyethyl)amino)phenyl)-1-(4-bromobenzyl)-1H-benzo[d]imidazol-5-yl)-3-((3,4-dichlorobenzyl)amino)propanamide]: in assay [2], the viability at 2.5 µM turned out to be 22%, the viability at 5 µM is 2% and the viability at 10 µM came out at 0%.
